Columns and labels:
[1] = tested on: ACTH-induced serum corticosterone in dexamethasone-suppressed mice; assay: in vivo Serum Corticosteroid Inhibition Assay; parameters: species or system FVB/N mice; details: peptide alone 120 minutes after dexamethasone, blood one hour later
From the text: An in vivo Serum Corticosteroid Inhibition Assay measures the level of corticosteroid or corticosterone in the blood stream of a subject after administering a compound having a first corticosteroid-producing biological activity and a test compound. The compound having the corticosteroid-producing biological activity can be any compound known to induce a detectable increase in corticosteroid production. The test compound can be administered before the corticosteroid-producing compound, in combination with the corticosteroid-producing compound, and/or after the corticosteroid-producing compound. The corticosteroid-producing compound is preferably ACTH, but can also be an ACTH analog with a known corticosteroid-producing biological activity. By performing a series of in vivo Serum Corticosteroid Inhibition Assays using ACTH analog test compounds, ACTH analogs that inhibit the production of corticosteroid relative to the corticosteroid-producing compound used can be identified. Preferably, the ACTH analogs identified in this manner inhibit the production of corticosteroid in the presence of endogenous unmodified ACTH.
The in vivo Serum Corticosteroid Inhibition Assay can include sequential administration of the test compound and the corticosteroid-producing compound by the following steps: first, an agent to suppress endogenous ACTH production was administered to a mouse subject, such as an intraperitoneal injection of dexamethasone; second, after waiting a suitable period of time for suppression of endogenous ACTH production (e.g., 1.5–2.0 hours), a test compound was administered to the mouse by a suitable method, such as intraperitoneal injection; third, after waiting a suitable period of time (e.g., 1 hour) for action of the test compound, a compound with corticosteroid-producing activity can be administered to the mouse by a suitable method, such as intraperitoneal injection; and fourth, after waiting a suitable period of time for the biological activity of both administered compounds to occur (e.g., 1 hour), a blood sample was taken from the subject and the level of serum corticosterone was determined by a suitable method, such as a competitive radioimmunoassay using ^125I RIA kit (ICN, Costa Mesa, Calif.). Optionally, steps two and three can be reversed (administering the corticosteroid-producing compound first, followed by administration of the test compound). The in vivo Serum Corticosteroid Inhibition Assay can also include co-administration of the test compound and the corticosteroid-producing compound by the following steps: first, an agent to suppress endogenous ACTH production was administered to a mouse subject, such as an intraperitoneal injection of dexamethasone; second, after waiting a suitable period of time for suppression of endogenous ACTH production (e.g., 1.5–2.0 hours), the corticosteroid-producing compound and a test compound were co-administered to the mouse by a suitable method, such as intraperitoneal injection; and third, after waiting a suitable period of time for the biological activity of both administered compounds to occur (e.g., 1 hour), a blood sample was taken from the subject and the level of serum corticosterone was determined by a suitable method, such as a competitive radioimmunoassay using ^125I RIA kit (ICN, Costa Mesa, Calif.). Also, in some embodiments, the first step in any in vivo Serum Corticosteroid Inhibition Assay can be replaced by a measurement of the initial endogenous corticosteroid or corticosteroid level in the blood of the subject in the manner of step four, instead of administering the agent to suppress ACTH production. Example 2 describes murine in vivo Serum Corticosteroid Inhibition Assays in detail.
A series of separate in vivo Serum Corticosteroid Inhibition Assays were performed to identify ACTH analogs that inhibit ACTH adrenal hormone production in vivo. […]

[2] = molecular target: T1, adrenal ACTH receptors such as MC-2R (explanted adrenal membrane) (Mus musculus, UniProt Q64326); assay: in vitro Serum-free Adrenal Competitive Binding Assay; parameters: species or system mice; details: cold peptide at 10 nM, 100 nM, 1000 nM
T1 construct: the adrenal halves were macerated or otherwise dissociated using Dounce Homogenizer to form a membrane fraction; from tissue; host or cells: membrane fraction of explanted mouse adrenal glands
From the text: ACTH analog compounds that bind to adrenal membrane with a greater affinity than endogenous unmodified ACTH, and are able to displace unmodified ACTH can be identified using an in vitro Serum-free Adrenal Competitive Binding Assay (Example 3). […] A higher CPM level indicates the presence of greater amounts of the radiolabelled compound. […] Column 220 indicates the level of radio-labeled unmodified mACTH(1–24) detected after combining the explanted adrenal membrane with only the radio-labeled mACTH(1–24) for 2 hours.(no competitive binding). Columns 230, 240, and 250 show the results of competitive binding assays for binding of non-radio-labeled (“cold”) mACTH(1–24) to displace the radio-labeled mACTH(1–24) from the explanted adrenal membrane (measured in column 220) by competitive binding to receptors such as MC-2R on the adrenal membrane. […]
ACTH analogs with the ability to bind adrenal receptors with a greater affinity than compounds with known adrenal binding activity (preferably ACTH) can also be identified by performing an in vitro Adrenal Competitive Binding Assay, whereby measurement of the reduction in the amount of the radiolabelled adrenal-binding compound (e.g., ACTH) is measured at various concentrations of non-radio-labeled ACTH analog test compound in a medium containing explanted adrenal membrane. […]

[3] = in vivo; cited from earlier work

T1 sequence (Q64326 whole entry): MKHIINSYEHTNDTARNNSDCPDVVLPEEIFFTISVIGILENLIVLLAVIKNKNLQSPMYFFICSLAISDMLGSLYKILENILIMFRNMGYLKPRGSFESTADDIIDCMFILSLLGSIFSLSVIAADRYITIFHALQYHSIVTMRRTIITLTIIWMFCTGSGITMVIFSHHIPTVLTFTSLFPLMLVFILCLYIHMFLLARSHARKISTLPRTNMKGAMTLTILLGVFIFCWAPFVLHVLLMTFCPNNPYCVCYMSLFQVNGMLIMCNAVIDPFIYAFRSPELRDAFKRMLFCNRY
T1 sequence (Q9D159 whole entry partner): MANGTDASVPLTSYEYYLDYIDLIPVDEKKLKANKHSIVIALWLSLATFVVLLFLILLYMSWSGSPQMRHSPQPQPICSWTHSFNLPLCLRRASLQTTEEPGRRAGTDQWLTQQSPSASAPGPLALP

## N-Ser^1-Tyr-Ser-Met-Glu^5-His-Phe-Arg-Trp-Gly^10-Lys-Pro-Val-Gly-Lys^15-Lys-Arg-Arg-Pro-Val^20-Lys-Val-Tyr-Pro-Ac [mACTH(1–24), reference compound]
[1]
  serum corticosterone level at 180 minutes: 500 ± 76 ng/mL
[1]; listed as ACTH
  serum corticosterone level at 180 minutes: 500 ± 76 ng/mL
[2]
  displacement of radio-labeled mACTH(1–24) from explanted adrenal membrane (CPM): displacement of the radio-labeled mACTH(1–24)
[3]
  half life in blood: less than 20 minutes
